Measured values from a melting point compilation (Tetko et al.; mined from patent text by program, amines drawn as free bases though some values may be those of a salt).

melting point [°C]	SMILES
207 to 209	Cc1ccc(-n2c(-c3cc(-c4ccccc4)c(N4CCOCC4)s3)nc3ccccc3c2=O)cc1
239 to 241	CNS(=O)(=O)c1cc(C(=O)NNC(=O)c2occ(-c3ccccc3)c2-c2ccccc2)ccc1OC
121 to 125	Cc1cc2c(cc1C)N(C)Cc1cscc1N2
298 to 299	CCOCCn1cc2c(C3C(=O)Nc4ccc(Cl)cc43)nc(NCc3ccncc3)nc2n1 (centres undefined)
256 to 258	Nc1ncnc2c1ncn2COCCN1C(=O)c2ccccc2C1=O
194	CCOC(=O)c1cc(Oc2ccc3c(C(=O)Nc4cccc(C(F)(F)F)c4)cccc3c2)ncn1
103 to 106	Cc1ccc(N2CCCN(C(=O)OC(C)(C)C)CC2)cc1[N+](=O)[O-]
124 to 125	CC1(C)Oc2ccc(C(=O)O)cc2S1
184	COc1cc(-c2ccc(N)nn2)ccc1OC(F)F
140 to 142	CCOC(=O)C1=C(C)N(C(C)=O)C(c2csc(C)n2)=NC1c1ccc(F)cc1 (centres undefined)
227	NC(=O)Oc1ccccc1-c1nc2ccc(OCc3c(F)cccc3Cl)cc2s1
205 to 207	CC1CCC(=NNc2ccccc2)c2ncc(C(=O)NN)c(=O)n21 (centres undefined)
112 to 113	CCOc1cc(N(C)C)c(Cl)cc1C(=O)NC1CCN(Cc2ccccc2)C1 (centres undefined)
172 to 174	Cc1ccc(NCC2CCN(C(C)C)CC2)c(C(=O)Nc2ccc(Cl)cn2)c1
142 to 143	CC1(C)CCC(C)(C)c2cc(CC(=O)Oc3ccc(C(=O)O)cc3)ccc21
141	CCOC(=O)C(C)(C)NC(=O)c1ccc(S(=O)(=O)N2C(=O)C(NC)(c3ccccc3Cl)c3cc(Cl)ccc32)c(OC)c1 (centres undefined)
161 to 163	CCOC(=O)c1nocc1Cn1nnnc1-c1cccc(Cl)c1Cl
247 to 249	CC1CCc2ccc(N)c3c(=O)c(C(=O)O)cn1c23 (centres undefined)
104 to 106	COc1cc(C(=CC#N)c2ccc(OC)c(OC)c2)ccc1N
143 to 145	C=Cc1c(NC(C)=O)cc(-c2ccc(Cl)c(OC)c2F)nc1C(=O)OC
158 to 160	CCCCn1ncc(/C=C(\Cc2cc3c(cc2OC)CCO3)C(=O)OCC)c1-c1ccc(Cl)cc1O

melting point [°C]	SMILES
125 to 130	Cn1cc(C2=C(c3c4n(c5ccccc35)CCC4)C(=O)OC2=O)c2ccccc21
192 to 193	Cc1[nH]cnc1/C=C/C(=O)c1coc2ccccc12
90	CC(=O)N1c2ccc(-c3ccc(CN(C)C)cc3)cc2C(Nc2ccccc2)CC1C (centres undefined)
105 to 110	CC1(C)Cc2cccc(Oc3c(Cl)cc([N+](=O)[O-])cc3Cl)c2O1
> 300	CCCn1cc2c(C3C(=O)Nc4ccc(Br)cc43)nc(NCCC(F)(F)F)nc2n1 (centres undefined)
231 to 233	COc1ccc(-c2c(NC(=O)Nc3ccc(F)cc3F)c(=O)n(C)c3ccc(C)cc23)cc1OC
320 to 323	CCCOc1ccc(NC(C)=O)cc1C1=NC(=O)C2=NC=NC2=N1
152 to 153	Nc1nc(-c2ccccn2)cc2ccccc12
112 to 113	COc1cc(CN2CCN(c3cccc(C)c3Cl)CC2)cc(OC)c1OC
123 to 126	Cc1cc(-n2nc(C(N)=O)nc2-c2ccccc2)ccc1F
109 to 110	COc1ccc(C(=O)O)c(OC(C)C)c1Br
154 to 158	Nc1cc(Cl)cc(Cl)c1C(=O)NCc1ccccc1F
184 to 186	Cc1cc(C)c(-c2cn(C)c3nc(N)[nH]c(=O)c23)c(C)c1
130 to 132	Cc1nc2c(Cl)cc(F)c([N+](=O)[O-])c2s1
320 to 321	Cc1cnc2[nH]cc(/C=C3\N=C(N4CCCCC4)NC3=O)c2c1
177 to 178	CCOC(=O)C1=C(C)NC(C)=C(C(=O)OCC)C1c1nc(-c2ccc(OC)cc2)c(-c2ccc(OC)cc2)s1
86 to 105	COc1cc2c(cc1Nc1ncc(Cl)c(Nc3cc(C#N)ccc3OC)n1)CCN(CC(=O)N(C)C)CC2
177 to 179	COc1ccc(C2=NN(C3CCN(C(=O)CN4C(=O)CCC4=O)CC3)C(=O)C(C)(C)C2)cc1OC
163 to 165	CC(=O)N1CCCC(=O)c2cc(Cl)c(Cl)cc2CCC1=O
106 to 107	COc1cc(COc2cc(CO)n(-c3ccccc3)n2)ccc1OCc1nc(-c2ccco2)oc1C
> 300	N=C(N)c1ccc2nc(-c3ccc(-c4nc5ccc(C(=N)N)cc5[nH]4)o3)[nH]c2c1

Further lines, the compound ahead of its results:

SMILES	melting point [°C]
CC1ON=C(c2ccc(F)cc2)C1CN(O)C(N)=O (centres undefined)	149 to 151
O=[N+]([O-])c1ccc(OCc2ccccc2)c(C(F)(F)F)c1	112 to 114
O=[N+]([O-])c1cc(I)cnc1Cl	77 to 79
N[C@@H](Cc1ccc(C(F)(F)F)cc1)[C@H](O)c1ccncc1 (racemic)	97 to 98
C=CCN1CC(=O)N(c2cc(C(=O)NCCCOc3ccc(C(C)(C)CC)cc3C(C)(C)CC)c(O)c3ccccc23)C1=S	204 to 205
CCOC(=O)N1C[C@@H]2CC[C@H]1C(=O)C2	68.5 to 69.5
COc1ccc(C(=O)Nc2cc([N+](=O)[O-])ccc2Cl)cc1OC	231 to 232
CCOc1c(/C=C\CO)cc(C(C)(C)C)cc1C(C)(C)C	93 to 94
CCNc1ccc(Cl)cc1C(=O)c1ccccc1	57 to 58
CONC(=O)NC1CCC(=O)c2ccccc21 (centres undefined)	148 to 151
O=C(Nc1ccccc1S(=O)(=O)C1CCCC1)N[C@@H](Cc1ccc(NC(=O)c2c(Cl)cncc2Cl)cc1)C(=O)O	233
CC1(C)Cc2cccc(OCCNCc3cccc(C4=C(F)CCC4)c3)c2O1	145
CC(=O)Nn1c2c(c3ccccc31)Cc1ccccc1-2	> 240
N#Cc1nn(-c2c(Cl)cc(C(F)(F)F)cc2Cl)c(N)c1-c1cccs1	206 to 207
C[C@H](NC(=O)OC(C)(C)C)C(=O)N1CCC[C@H]1C(=O)O	155 to 157
N#Cc1ccc2sc3c(c2c1)CC(CO)CC3 (centres undefined)	165 to 166
CCCc1c(C(C)=O)c2ccc(C(N)=O)cc2n1Cc1ccccc1Cl	208 to 211
O=C(CCCc1ccccc1)c1c(O)c2cccnc2n(-c2ccccc2)c1=O	200 to 202
COCCCNc1nc(N)c(Cl)c(Cl)n1	114

SMILES	melting point [°C]
Cc1ccc(-c2ccc3c(c2)C=C(C(=O)Nc2ccc(CP4(=O)OCCCO4)cc2)CCO3)cc1	268 to 269
C[C@@H]1Cc2ccccc2O[C@H]1c1ccccc1 (relative stereo)	77 to 78
CN1C(c2ccccc2)CC(=O)CC1c1ccccc1 (centres undefined)	147 to 149
CCCCCCCCCCCCCCN=C=S	77 to 79
CCCc1sc(NC(=O)C2CCCCC2)c(C#N)c1OC	146 to 147
N#Cc1c(C(F)(F)C(F)(F)F)nn(-c2c(Cl)cc(C(F)(F)F)cc2Cl)c1N	160 to 162
CC(C)(C)NC(=O)C(=O)C(C)(C)C	65
CCOC(=O)C=C1CN=C(c2ccccc2F)c2cc(Cl)ccc2N1	109 to 111
Clc1ccc2oc(-c3ccc(N4CCCCC4)cc3)nc2c1	162 to 164
O=C1Cc2cc(NCc3ccccc3)ccc2N1	203 to 206
CSc1ncc2ccc(Cl)nc2n1	201 to 203
CN(C1CCN(C2CC2)CC1)S(=O)(=O)c1ccc(Nc2nccc(Nc3ccc(F)cc3)n2)cc1	125 to 128
O=C(O)c1ccc(C(=O)O)c(OC(F)(F)C(F)OC(F)(F)C(F)(OC(F)(F)C(F)(F)C(F)(F)F)C(F)(F)F)c1 (centres undefined)	236 to 239
CSc1nnc(-c2ccc(-c3ccccc3)cc2)n1-c1ccccc1F	199 to 200
O=C(c1ccccc1)c1ccc(-c2nc(COc3cccc(CCCn4ccnc4)c3)co2)cc1	97 to 98
CCCCCCCCCCCCCCCCCC(=O)NCCO	96 to 99
COC(=O)c1ccccc1-c1ccc(COS(C)(=O)=O)cc1	43 to 45
CC(=O)Nc1cccc2c1Oc1ccccc1C21CCN(C)CC1	176 to 178
CN(C)C(=O)c1ccccc1CS(N)(=O)=O	149 to 154

SMILES	melting point [°C]
COc1c(C2CCN(CCCCNC(=O)c3ccc(-c4ccc(C#N)cc4)cc3)CC2)ccc2c1CCCC2	154
COC(=O)C(O)CCNc1ncc(N)cc1N (centres undefined)	229 to 230
N#Cc1ccccc1-c1ccc(CO)cn1	152 to 153
CC(C(=O)O)c1cccc(Sc2ccccc2F)c1O (centres undefined)	116 to 117
CCN(CC)Cc1ccc(-c2cccc(-c3ccnc4c(C(=O)c5cccs5)cnn34)c2)cc1	144 to 146
CCc1c(C(=O)O)ccc(OCc2ccccc2)c1Cl	208 to 210
COC(=O)/C=C/c1ccc(CC(C)NCC(O)c2ccccc2F)cc1 (centres undefined)	111 to 116
CCCN(CCCc1c[nH]c2ccc(Cl)cc12)C1COc2c(F)ccc(C(N)=O)c2C1 (centres undefined)	148 to 154
O=C(O)CS(=O)(=O)CCCCCn1nc(-c2ccccc2)c(-c2ccccc2)c1-c1ccccc1	200
O=C(NN=Cc1ccccc1)c1ccc(C(F)(F)F)cc1	216 to 217
CCS(=O)(=O)c1cc(OCCCCCCc2cccc(OCCCC(=O)O)c2CCC(=O)O)cc(-c2ccc3c(c2)OCO3)c1	134 to 135
CC(=O)Nc1ccc(CC[C@](O)(CC(=O)O)C(C)C)cc1	119 to 120
CCc1nc(N)nc(O)c1I	199 to 200
N#CC(C#N)C(=O)c1ccc2ccccc2c1	121
COC(=O)CC(=O)CS(=O)(=O)C(c1ccc(Cl)cc1)c1ccc(Cl)cc1	76 to 78
CS(=O)(=O)c1ccc(C2=C(c3ccccc3)C(=O)OC23CCC3)cc1	159 to 160
CCC1CC2C3CCC4=CC(=O)CCC4(CSC)C3CCC2(C)C1=O (centres undefined)	83
Nc1ccc(Oc2ccc(C3(c4ccc(Oc5ccc(N)c(O)c5)cc4)C4CC5CC(C4)CC3C5)cc2)cc1O	> 160
C#CCN1Cc2cccnc2N(c2cccc(Br)c2)C1=O	118 to 119
